This note sets out measurements from patent publication US5137720A, “Antiviral combination, and method of treatment” (Ciba-Geigy Corporation, priority 1988, dated 1992).

In one series the test system is rat alveolar macrophages. Nature of the series: In vitro alveolar macrophage-mediated cytotoxicity against MADB-200 tumor cells (crystal violet). The series is classed as cell-based. The settings on record: interferon 0. As to the method:
Macrophage-mediated cytotoxicity was assessed against syngeneic MADB-200 adenocarcinoma target cells available from the American Type Culture Collection, ATCC. These cells were maintained as monolayer cultures in MEM supplemented with 10% fetal calf serum. Cultures were maintained at 37° C. in a humidified atmosphere containing 5% CO2. Cultures were routinely tested for the presence of mycoplasma.
Alveolar macrophages (AM) were collected by transtracheal lavage (Brownbill and Schumann, Cancer Immunol. Immunother. 20, 11-17, 1985). The cells recovered from lavage fluids were centrifuged at 400× g for 10 minutes, suspended in serum-free medium, and plated into 96-well Microtest II plastic tissue culture dishes at 5×10^4 cells per well. After incubation for 60 minutes, cells were washed with HBSS to remove non-adherent […].
Purified cultures of rat alveolar macrophages were incubated at 37° C. for 1 hour with 0.2 ml of control medium, recombinant alpha B1 D2 B3 B4, MTP-PE, or a combination of alpha B1 D2 B3 B4 and MTP-PE. To these treated cells, 5×10^3 MADB-200 tumor cells were added and allowed to incubate for 72 hours at 37° C. Thus, 50,000 macrophages were incubated with 5000 tumor cells.
A colorimetric assay using crystal violet staining of remaining MADB-200 tumor cells was used to determine macrophage cytotoxicity (Brownbill and Schumann, Cancer Immunol. Immunother. 20, 11-17, 1985). Briefly, following incubation, wells are washed with HBSS and the remaining cells fixed with formalin and stained with crystal violet. Each well is thoroughly washed after staining, the cells decolorized with alcohol, and the extract read with a colorimeter. The % cytotoxic activity of alveolar macrophages was calculated as follows: [formula]

The nature of series [1]: Body distribution of liposomes following i.v. administration. The series is classed as in vivo. The settings on record: rodents. The procedure: Alpha interferon is diluted in calcium and magnesium free PBS, and 2.5 ml is used to reconstitute 250 mg lyophilized synthetic lipids (POPC/OOPS, 7:3 molar ratio) containing 1 mg MTP-PE. This mixture is vigorously shaken in a Vortex mixer for 2 minutes and allowed to stand for 30 minutes prior to revortexing and the addition of another 2.5 ml of PBS. It is found (using I^125 labelled alpha interferon) that approximately 20% of the interferon is bound to liposomes following this reconstitution procedure. Liposomes prepared in this manner have the same physical properties as liposomes containing only MTP-PE and appear to follow the same body distribution profile following i.v. administration in rodents. Approximately 2-3 times more MTP-PE and interferon reach the lung when both substances are incorporated into liposomes as compared to unencapsulated forms.

The test system of a further series is HSV-2/MS. Briefly: Herpes genitalis in the guinea pig, local lesion scores. The series is classed as in vivo, guinea pigs of the Pirbright strain. The procedure: Female albino guinea-pigs of the Pirbright strain, weighing 200-300 g, are infected intravaginally after gentle opening of the introitus vaginae with a forceps. Thereafter, pieces of fibrin foam (SEVAC, Prague) measuring 5×5×4 mm are impregnated with 0.05 ml containing about 10^4 PFU of HSV 2/MS from cultures in HEL. These pieces are introduced intravaginally (1-2). The animals are kept in groups of 4-5 in type 4 Macrolon cages.
Three days after infection, by which time the local symptomatology scores (see below) range from 3 to 6 in about 90% of the animals, these animals are divided at random into groups of 10-15 per preparation and untreated control. Treatment is started 72 hours after infection and administered twice daily for 5 days. One tenth of a milliliter is applied intravaginally and 0.1 ml extravaginally.
From the 3rd day onwards, the local symptoms are evaluated thrice weekly. The criteria applied in assessing the therapeutic effects of treatment are the rate and the degree of regression of overt signs of infection in the individual animals. The degree and severity of local symptoms are scored according to the following points system:
The number indicated in the following Table of female albino guinea pigs of the Pirbright strain (150-180 g body weight) are infected intravaginally with ~10^4 PFU (plaque-forming units) of herpes simplex type 2 virus, cultivated in HEL (human embryonal lungs) cells, as described in B. Lukas et al., Arch. ges. Virusforsch. 44, 153-155 (1974).
Beginning 72 h after infection, animals are treated intravaginally twice a day for 5 days with 0.2 ml of a gel containing one of the following: i) alpha interferon B1 D2 B3 B4 at 1.5×10^6 units/kg; ii) Liposome-encapsulated MTP-PE at 1 mg/kg and iii) a mixture of both. Guinea pigs receiving placebo treatment are given a gel without active ingredients.

Structures are written as SMILES.

Consider `CCCCCCCCCCCCCCCC(=O)OC[C@H](COP(=O)([O-])OCCNC(=O)[C@H](C)NC(=O)CC[C@@H](NC(=O)[C@H](C)NC(=O)[C@@H](C)O[C@H]1[C@H](O)[C@@H](CO)O[C@@H](O)[C@@H]1NC(C)=O)C(N)=O)OC(=O)CCCCCCCCCCCCCCC.[Na+]` [MTP-PE, N-acetyl-muramyl-L-alanyl-D-isoglutaminyl-L-alanine-2-(1,2-di-palmitoyl-sn-glycero-3-hydroxyphosphoryloxy)-ethylamide-sodium salt], for which the “% Cytotoxicity” value in the series on rat alveolar macrophages (MTP-PE alone 0.01 μg/ml) amounted to 0%; in the series on rat alveolar macrophages (MTP-PE alone 0.03 μg/ml) it was 7%; in the series with rat alveolar macrophages (MTP-PE alone 0.1 μg/ml) it was 10%. In series [1], the “amount reaching the lung, both substances incorporated into liposomes as compared to unencapsulated forms” value is 2-3 times. The “Mean Lesion Score ± Standard Error” value in the series on HSV-2/MS (day 3 after infection (start of treatment), gel intravaginally twice a day for 5 days, interferon 1.5×10^6 units/kg, liposome-encapsulated MTP-PE 1 mg/kg) came to 1.9 ± 0.23; in the series with HSV-2/MS (day 5 after infection, same treatment) it was 2.8 ± 1.15; with HSV-2/MS (day 7 after infection, same treatment), 4.3 ± 1.32; in the series with HSV-2/MS (day 10 after infection, same treatment), 4.0 ± 1.93; in the series on HSV-2/MS (day 12 after infection, same treatment) it was 4.3 ± 1.42; in the series on HSV-2/MS (day 14 after infection, same treatment), 4.3 ± 1.42. Moreover, the “Mean Lesion Score ± Standard Error” value in the series with HSV-2/MS (day 17 after infection, same treatment) is reported as 3.0 ± 1.60.
